Legend:
SH-SY5Y [1] = assay: Neuroprotective effect against 6-OHDA-induced neurotoxicity in human SH-SY5Y cells at 1 uM treated 1 hr before 6-OHDA injury after 24 hrs by MTT assay relative to control; format: functional
SH-SY5Y [2] = assay: Neuroprotective effect against 6-OHDA-induced neurotoxicity in human SH-SY5Y cells at 0.1 uM treated 1 hr before 6-OHDA injury after 24 hrs by MTT assay relative to control; format: functional

Row | SMILES | Activity (SH-SY5Y [1]) [%] | Activity (SH-SY5Y [2]) [%]
1 | Cc1c(O)cc(CCc2ccccc2)cc1O[C@@H]1O[C@H](CO)[C@@H](O)[C@H](O)[C@H]1O | 72.4 | 50.9
2 | O=C(O[C@@H]1Cc2c(O)cc(O)cc2O[C@@H]1c1cc(O)c(O)c(O)c1)c1cc(O)c(O)c(O)c1 [EPIGALOCATECHIN GALLATE] | 42.2 | 20.1
3 | COc1cc(OC)cc(C(O[C@@H]2O[C@H](CO)[C@@H](O)[C@H](O)[C@H]2O)C(O)c2ccccc2)c1 (stereo partly drawn) | 97.3 | 29.5
4 | COc1ccc(CCc2cc(O)c(C)c(O[C@@H]3O[C@H](CO)[C@@H](O)[C@H](O)[C@H]3O)c2)cc1 | 65.6 | 31

— ChEMBL document CHEMBL1157332, “Neuroprotective bibenzyl glycosides of Stemona tuberosa roots” (2006)
